In assay [1] the test system is ER stress markers (BIP, PDI and CHOP). Nature of the assay: Western blot of ER stress markers in human fibroblasts. The format is cell-based. Conditions: control Npc+/+ fibroblasts. The protocol: 100mg of liver were homogenized with a pestle homogenizer in 1ml of homobuffer (70mM saccharose, 220mM mannitol, 2mM Tris-HCI pH 7.4, 0,1mM EDTA, 0.1% fatty acid free BSA) supplemented with protease and phosphatase inhibitors (Roche). Liver homogenates were diluted 4 times with RIPA lysis buffer (Sigma) with anti-proteases and anti-phosphatases. Cells were washed with PBS and lysed with ice-cold RIPA lysis buffer supplemented with protease and phosphatase inhibitors. Samples were incubated 15min at 4°C, vortexed and spinned down for 5min at 10000rpm. All supernatants were collected and quantified for protein concentration using Quick-Bradford reagent (Bio-Rad) and 20-50µg of protein were subjected to 4-12% SDS-polyacrylamide gel electrophoresis (SDS-PAGE) (Bio-Rad, XT-Criterion). Proteins were electrotransferred at 4°C onto Hybond ECL nitrocellulose membranes (Amersham) and 5% BSA solution in TBS-Tween was used to block the membranes for 1h at room temperature. […] Images were digitally captured by LAS4000 (GE Healthcare) and optical density was analyzed with ImageJ software.
(In general: Immunoblotting shows a protein as a band on a membrane.)

For a further assay, the system named is patients. The conditions noted are these: NPC patients; cited from earlier work.

The source of these data is patent EP4014997A1, “STARD1 INHIBITORS FOR THE TREATMENT OF LYSOSOMAL DISORDERS” (Consejo Superior de Investigaciones Científicas (CSIC), priority 2020, dated 2022).

For tunicamycin, in assay [1], the “markers of ER stress (BIP, PDI and CHOP)” value is “induced markers of ER stress”. As for `CCCCN1C[C@H](O)[C@@H](O)[C@H](O)[C@H]1CO` [miglustat], in the assay on patients, the “life span of patients” value is listed as “extends the life span of patients”.
